Measurements from publication PMC13130965, “An Integrated Approach Combining Regulatory Tests in tg(cyp19a1b:GFP) Zebrafish Embryos to Assess Toxicity, Developmental Effects, and Estrogenic Activity of Chemicals: A Case Study with Bisphenol A Substitutes” (Environmental Science & Technology, 2026).
Values after ≈ are worked out from the molar mass of the structure shown. Where two headings read alike, the source gives them in different places.

Key:
hERβ [1] = tested on: hERβ; parameters: method as in Grimaldi et al.; details: HELN-hERβ; ref Grimaldi et al.; cited from earlier work
[2] = tested on: zfERs / cyp19a1b:GFP in tg(cyp19a1b:GFP) zebrafish embryos; experiment: EASZY coexposure with ER antagonist ICI 182,780; format: in vivo, zebrafish (Danio rerio); details: also with 48 h ICI pre-exposure
Protocol: (§1) The tests were conducted according to OECD TG 250. Newly fertilized cyp19a1b-GFP eggs were transferred to glass crystallizing dishes and exposed for 96 h in a humidified climate chamber (27 ± 2 °C) under semistatic conditions with a total renewal of the test solutions each day. Each condition consisted of three crystallizing dishes, each containing 7 embryos and 15 mL of test medium. Embryos were exposed to a range of nonlethal concentrations of chemicals as determined previously based on the refined FET assays. The tested concentration ranges of bisphenols, along with a control with the same percentage of solvent alone, are summarized in Table S2. All exposure concentrations are reported as nominal. At the end of exposure, transgenic zebrafish embryos were collected for fluorescence imaging to quantify GFP intensity. At the end of the experiments, all living zebrafish embryos were euthanized as described above. For coexposure experiments, embryos were exposed to bisphenols in the presence of 1 μM of the ER antagonist ICI 182,780 (ICI). ICI was added together with bisphenols from 0 to 4 dpf (days post fertilization). […] In all coexposure experiments, the final DMSO concentration was 0.02% (v/v).

[3] = cited from earlier work
zebrafish ERβ2 (zfERβ2) = zebrafish ERβ2 (zfERβ2) (Danio rerio, UniProt Q7ZU32); experiment: ZELH-zfERβ2 luciferase reporter gene assay; format: cell-based; details: read-out: maximal efficacy
Protocol: The ZELH-zfERs reporter cell line was previously established after a two-step stable transfection of the zebrafish hepatic cell line ZFL with the luciferase gene under the control of ERE (yielding the ZELH cell line that expresses no functional ER) and the zebrafish ER subtype β2 (yielding the ZELH-zfERβ2 cell line). Cells were cultured, exposed to chemicals for 72 h, and measured for luciferase activity exactly as previously described. , For each chemical, serial dilutions were prepared in DMSO and tested in three independent experiments. The final DMSO concentration in the culture medium was always 0.1% v/v. All tested concentrations refer to nominal concentrations.

[4] = tested on: cyp19a1b:GFP (brain aromatase) in tg(cyp19a1b:GFP) zebrafish embryos; experiment: EASZY assay (OECD TG 250): GFP induction; format: in vivo, zebrafish (Danio rerio); details: Danio rerio, 96 h, 96 h; for EC50: read-out: EASZY relative EC50, nominal
Protocol: as §1, with “For coexposure experiments, embryos were exposed to bisphenols in the presence of 1 μM of the ER antagonist ICI 182,780 (ICI).” left out
For fluorescence imaging, GFP fold induction was expressed as mean ± SEM, and values were compared to the DMSO control using one-way ANOVA followed by Dunnett’s posthoc test. […]

[5] = Refined Fish Embryo Acute Toxicity test (FET, OECD TG 236): mortality; format: in vivo, zebrafish (Danio rerio); details: tg(cyp19a1b:GFP), zebrafish, in vivo, other: waterborne exposure of embryos in test solution, LC50 (96h) experimental (FET test), nominal, brackets 95% CI
Protocol: (§2) Exposures were carried out in presaturated 24-well plates containing one embryo per well in 2 mL of test solution. The exposure was performed under semistatic conditions, with daily renewal of the test solution. The concentration ranges tested, along with a control with the same percentage of solvent alone, are recapitulated in Table S1. All exposure concentrations are reported as nominal. During the time course of the refined FET tests, embryos were observed after 8 h (coagulation), 24 h (lack of somite formation and nondetachment of the tail), and 48, 72, and 96 h of exposure (nondetection of the heartbeat). […] Moreover, hatching rate and nonlethal developmental effects (i.e., yolk deformity, growth retardation, spontaneous movement, edema, blood tail circulation, heart rate, pigmentation, head and tail/spinal malformations, and hemorrhage) were monitored daily. Tail/spinal malformations included lordosis, kyphosis, scoliosis, and reduced tail length.
(§3) This analysis considered all nonlethal developmental end points monitored in the refined FET assay (see above), except effects on hatching, pigmentation, spontaneous movement, and blood circulation. A teratogenic index (TI) was then calculated as the ratio LC50/EC50.
(§4) Baseline toxicity and experimental FET LC50 values were used to calculate toxic ratios (TR = predicted baseline toxicity LC50/experimental FET LC50). Compounds with TR < 10 were considered as baseline toxicants.

[6] = tested on: tg(cyp19a1b:GFP) zebrafish embryos; experiment: Refined FET: developmental effects / malformations; format: in vivo, zebrafish (Danio rerio); details: nominal; for EC50: Danio rerio, end of 96 h exposure, read-out: EC50 malformations (cumulative sublethal end points); for LOEC deformity of yolk: at least 10% of embryos affected
Protocol: as §2, §3

Adult Zebrafish = details: ref Ren et al. (2017); cited from earlier work
[7] = tested on: tg(cyp19a1b:GFP) zebrafish embryos; experiment: Refined Fish Embryo Acute Toxicity test (FET, OECD TG 236): mortality; format: in vivo, zebrafish (Danio rerio); details: nominal, brackets 95% CI
Protocol: as §2, §3, §4

Zebrafish embryos = details: cited from earlier work
hERβ [8] = tested on: hERβ; parameters: method as in Pelch et al.; details: HepG2-hERβ; ref Pelch et al.; cited from earlier work
[9] = 120h-exposure, ref Qiu et al. (2021)
[10] = zebrafish embryos, ref Ren et al. (2017)

Sequence of zebrafish ERβ2 (zfERβ2) (Q7ZU32 1-553): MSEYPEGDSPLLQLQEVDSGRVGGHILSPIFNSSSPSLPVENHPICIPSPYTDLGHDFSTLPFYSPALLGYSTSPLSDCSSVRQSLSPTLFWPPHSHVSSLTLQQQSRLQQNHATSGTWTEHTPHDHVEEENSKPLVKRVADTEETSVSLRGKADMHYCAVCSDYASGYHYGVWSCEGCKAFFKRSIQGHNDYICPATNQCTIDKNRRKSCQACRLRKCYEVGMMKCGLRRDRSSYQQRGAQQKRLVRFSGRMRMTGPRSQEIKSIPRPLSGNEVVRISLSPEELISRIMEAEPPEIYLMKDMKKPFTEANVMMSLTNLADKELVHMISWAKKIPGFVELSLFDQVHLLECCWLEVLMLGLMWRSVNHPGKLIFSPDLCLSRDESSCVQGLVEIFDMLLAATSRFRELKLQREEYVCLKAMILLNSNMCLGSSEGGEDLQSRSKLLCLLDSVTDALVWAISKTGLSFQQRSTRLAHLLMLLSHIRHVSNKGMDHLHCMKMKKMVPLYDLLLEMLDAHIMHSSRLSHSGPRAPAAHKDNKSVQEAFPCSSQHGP

Question: Which EC50 (hERβ [1]) does the source give for `Oc1ccc(C(=C(Cl)Cl)c2ccc(O)cc2)cc1` [BPC-Cl, 4-[2,2-dichloro-1-(4-hydroxyphenyl)ethenyl]phenol] here?
Answer: Its EC50 is 46 nM.

Question: What about the maximal efficacy (hERβ [1]) of the same compound?
Answer: Its maximal efficacy is 35%.

Question: And the “effect of ICI 1 μM on bisphenol-induced GFP” value [2]?
Answer: Its value is “unable to block”.

Question: And the “Log Kow” value ([3]; ref ChemSpider)?
Answer: Its value is 4.25.

Question: What about the Emax (zebrafish ERβ2 (zfERβ2)) of the same compound?
Answer: The Emax was 61%.

Question: And the EC50 [4]?
Answer: The EC50 was 0.015 µg/mL (≈ 0.0534 µM).

Question: What about the LC50 at 96 h [5] of the same compound?
Answer: Its LC50 at 96 h is 4.18 µg/mL (≈ 14.9 µM).

Question: What about the EC50 [6] of the same compound?
Answer: Its EC50 is 1.28 µg/mL (≈ 4.55 µM).

Question: And the LOEC edema [6]?
Answer: The LOEC edema was 0.99 mg/L.

Question: And the “LOEC heart rate disruption” value [6]?
Answer: The value was 8.89 mg/L.

Question: And the LOEC hemorrhage [6]?
Answer: The LOEC hemorrhage was 2.96 mg/L.

Question: And the “LOEC no blood tail circulation” value [6]?
Answer: Its value is 8.89 mg/L.

Question: And the “LOEC no spontaneous movement” value [6]?
Answer: Its value is 2.96 mg/L.

Question: And the “LOEC no/Less pigmentation” value [6]?
Answer: The value was 8.89 mg/L.

Question: What about the LOEC tail/spinal malformations [6] of the same compound?
Answer: The LOEC tail/spinal malformations was 8.89 mg/L.

Question: What about the “LOEC deformity of yolk” value [6] of the same compound?
Answer: Its value is 0.99 mg/L.

Question: Which results are given for `Oc1ccc(Cc2ccc(O)cc2)cc1` [BPF, 4-[(4-hydroxyphenyl)methyl]phenol]?
Answer: EC50 (hERβ [1]): 952 nM; maximal efficacy (hERβ [1]): 100%; LC50(24h) (Adult Zebrafish): 10.10 µg/mL (≈ 50.4 µM); LC50(48h) (Adult Zebrafish): 9.86 µg/mL (≈ 49.2 µM); LC50(72h) (Adult Zebrafish): 9.51 µg/mL (≈ 47.5 µM); LC50(96h) (Adult Zebrafish): 9.51 µg/mL (≈ 47.5 µM); Log Kow ([3]; ref Adamovsky et al.): 2.91; Emax (zebrafish ERβ2 (zfERβ2)): 71%; EC50 [4]: 0.407 µg/mL (≈ 2.03 µM); LC50 at 96 h [5]: 35 µg/mL (≈ 175 µM); LC50 (96h) experimental (FET test) [7]: 35.07 [33.99;35.07] mg/L; Hatching success EC50(72h) (Zebrafish embryos; 4-days exposure, ref Moreman et al. (2017)): 14 (0.41) mg/L; LOEC (body length, GnRH3 neurons, reproductive neuroendocrine-related genes and hormones) (Zebrafish embryos; [9]): 100 µg/L; NOEC (body length, GnRH3 neurons, reproductive neuroendocrine-related genes and hormones) (Zebrafish embryos; [9]): 1 µg/L; NOEC (developmental toxicity) (Zebrafish embryos; Wildtype (AB/TL), 1-6 dpf static + 6-9 dpf semistatic, ref Catron et al. (2018; 2019)): 15.3 µM; LC50(96h) (Zebrafish embryos; Wildtype AB, 120h-exposure, ref Yang et al. (2017)): 10.030 µg/mL (≈ 50.1 µM); mortality (Zebrafish embryos; at 20 mg/L, ref Tišler et al. (2016)): 20%; LC50 (Zebrafish embryos; read-out: LC50(96h), Wildtype AB, 96h-exposure, ref Arrokhman et al. (2023)): 120000 nM; Edema EC50(48h) (Zebrafish embryos; ref Tišler et al. (2016)): 10.7 (9.4-12.2) mg/L; Hatching inhibition EC50(72h) (Zebrafish embryos; ref Tišler et al. (2016)): 6.8 (5.8-8.5) mg/L; Pigmentation EC50(48h) (Zebrafish embryos; ref Tišler et al. (2016)): 1.1 (0.92-1.3) mg/L; LC50 (96h) literature (Zebrafish embryos; zebrafish embryos, 95% CI, ref Mu et al.): 19.6 [18.47–20.67] mg/L; LC50 (96h) literature (Zebrafish embryos; zebrafish embryos, parentheses SEM, ref Moreman et al.): 32 (0.55) mg/L; LC50 (96h) literature (Zebrafish embryos; zebrafish embryos, ref Arrokhman et al.): 24 mg/L (≈ 120 µM); LC50 (96h) literature (Zebrafish embryos; zebrafish embryos, ref Gao et al.): 24.5 mg/L (≈ 122 µM); LC50 (96h) literature (Zebrafish embryos; zebrafish embryos, ref Gu et al.): 7.40 mg/L (≈ 37 µM); Body length LOEC (Zebrafish embryos; [10]): 8 mg/L; Body length NOEC (Zebrafish embryos; [10]): 6 mg/L; LC50(24h) (Zebrafish embryos; [10]): 9.13 µg/mL (≈ 45.6 µM); LC50(48h) (Zebrafish embryos; [10]): 8.93 µg/mL (≈ 44.6 µM); LC50(72h) (Zebrafish embryos; [10]): 8.56 µg/mL (≈ 42.7 µM); LC50 (96h) literature (Zebrafish embryos; zebrafish embryos, ref Ren et al.): 7.40 mg/L (≈ 37 µM); EC50 [6]: 17.2 µg/mL (≈ 85.9 µM); LOEC edema [6]: 15 mg/L; LOEC head malformations [6]: 7.5 mg/L; LOEC heart rate disruption [6]: 60 mg/L; LOEC hemorrhage [6]: 7.5 mg/L; LOEC no blood tail circulation [6]: 60 mg/L; LOEC no spontaneous movement [6]: 60 mg/L; LOEC tail/spinal malformations [6]: 30 mg/L; LOEC deformity of yolk [6]: 15 mg/L

Question: What does the source list for `C=CCOc1ccc(S(=O)(=O)c2ccc(O)cc2)cc1` [BPS-MAE, 4-(4-prop-2-enoxyphenyl)sulfonylphenol]?
Answer: effect of ICI 1 μM on bisphenol-induced GFP [2]: unable to block; Log Kow ([3]; ref ChemSpider): 3.13; maximal efficacy (hERβ [8]): 6%; minimal effective concentration ([4]; read-out: EASZY LOEC (GFP induction), nominal): 0.625 µg/mL; EC50 [4]: 0.327 µg/mL (≈ 1.13 µM); LC50 at 96 h [5]: 20.1 µg/mL (≈ 69.1 µM); EC50 [6]: 6.84 µg/mL (≈ 23.6 µM); LOEC edema [6]: 33.3 mg/L; LOEC heart rate disruption [6]: 33.3 mg/L; LOEC no blood tail circulation [6]: 33.3 mg/L; LOEC no spontaneous movement [6]: 33.3 mg/L; LOEC no/Less pigmentation [6]: 33.3 mg/L; LOEC tail/spinal malformations [6]: 33.3 mg/L
